“Also recorded” adds a separate entry of the source. Each block holds one compound with its values, some of them ahead of it.
Assays:
[1] = Tissue curcumin/curcuminoids levels by UPLC-fluorescence; assay type: in vivo, female A/J mice; details: for concentration at 21 days: female, A/J
[2] = In vitro release from polymeric implants; assay type: in vitro ADME; details: for cumulative release over 3 weeks: 37°C
[3] = tested on: DBP-induced lung DNA adducts; assay: Inhibition of DBP-DNA adducts in lung tissue, 32P-postlabeling; assay type: in vivo, female A/J mice; details: coated implants, DBP-treated mice, 3 weeks
[4] = tested on: human lung cancer A549 xenograft; assay: Effect on tumor xenograft
[5] = design: species or system mice; details: mouse, in vivo
[6] = coated implants, PBS + 10% bovine serum
[7] = implants of the individual curcuminoids, 21 days

Compound: Cc1c(-c2cnccn2)ssc1=S [oltipraz, reference compound]
- release in PBS alone ([2]; coated implants agitated in PBS alone at 37°C): essentially no release
- cumulative release ([2]; coated implants, PBS + 10% bovine serum, after 21 days): about 12%
- cumulative release ([2]; coated implants, PBS + 10% bovine serum, after 60 days): ~27%
- in vitro release pattern ([2]; coated implants, PBS + 10% bovine serum, over 60 days / eight weeks): almost zero-order kinetics
- effect on DBP-DNA adduct levels in lung [3]: reduction was statistically significant
- lung DNA adducts [3]: 28±7 adducts/10^9 nucleotides

Compound: COc1cc(/C=C/C(=O)CC(=O)/C=C/c2ccc(O)c(OC)c2)ccc1O [curcumin I]
- level in lung ([1]; implants of the individual curcuminoids, 10% load, 21 days): 6.5 ± 1.6 ng/g lung
- level in brain [1, 7]: 1.4 ng/g tissue
- level in liver [1, 7]: 5–6 ng/g tissue

Compound: O=C(/C=C/c1ccc(O)cc1)CC(=O)/C=C/c1ccc(O)cc1 [curcumin III, bisdemethoxycurcumin]
- concentration at 21 days ([1]; mouse, in vivo, level in brain): 6.4 ng/g
- concentration at 21 days ([1]; mouse, in vivo, level in liver): 5 to 6 ng/g
- concentration at 21 days ([1]; mouse, in vivo, level in lung): 49.7 ± 1.3 ng/g
- cumulative release over 3 weeks [2, 6]: 51.4%

Second part, led by results:

- concentration at 21 days ([1]; mouse, in vivo, level in brain): 1 ng/g
- concentration at 21 days ([1]; mouse, in vivo, level in lung): 1.4 ± 0.4 ng/g
- cumulative release over 3 weeks [2, 6]: 41.8%
Compound: COc1cc(/C=C/C(O)=C/C(=O)/C=C/c2ccc(O)cc2)ccc1O [curcumin II, demethoxycurcumin]

- total dose administered via the two implants ([4]; calculated based on the residual amount in the implants): 2.69 mg
Compound: CC1=C(CO)C(=O)O[C@@H]([C@@H](C)[C@H]2CC[C@H]3[C@@H]4C[C@H]5O[C@]56[C@@H](O)C=CC(=O)[C@]6(C)[C@H]4CC[C@]23C)C1 [withaferin A]
- effect on DBP-DNA adduct levels in lung [3]: reduction in the DNA adduct levels
- effect on DBP-DNA adduct levels in lung ([3]; listed as Withaferin A): diminished DNA adducts, but it was insignificant
- effect on A549 xenograft ([4]; given via the implants): significantly inhibited
- inhibition of the tumor ([4]; intraperitoneally 8 mg/kg, alternate days): 53%
- effect on tumor ([4]; intraperitoneally, lower dose 4 mg/kg (same total dose as implants), 4 mg/kg): ineffective; also recorded: no reduction
- body weight at the end of the 8-week study ([4]; via implants vs sham): essentially the same body weight
- reduction in the growth of the tumor (tumor volume) ([4]; via implants, two 1.5-cm, 5% load): 51%

- composition of the three curcuminoids in lung tissue ([1]; mouse, in vivo): essentially the same compositions
- ratio of the three curcuminoids in the liver ([1]; mouse, in vivo): 74:18:8
- biochemical parameters of kidney function [5]: No significant differences
- hematological parameters (white blood cells, red blood cells, hemoglobin) [5]: No significant differences
- liver enzymes [5]: No significant differences
- neutrophils, lymphocytes, monocytes, eosinophils, and basophils [5]: no statistical difference
Compound: curcumin
- effect on body weight [5]: no significant effect
